From PMC6791832, “In vitro inhibition of human red blood cell acetylcholinesterase (AChE) by temephos-oxidized products” (Scientific Reports, 2019)

What was measured:
[1] = rats, orally administered; cited from earlier work
[2] = molecular target: T1, human red blood cell acetylcholinesterase (RBC AChE) (Homo sapiens, UniProt P22303); assay: Human RBC AChE inhibition assay (Ellman method, hemolyzed whole blood); assay type: biochemical; conditions: for IC50: hemolyzed samples preincubated with compound for 15 min at 37 °C, three independent experiments in duplicate
T1 construct: from tissue; host or cells: whole blood (hemolyzed, 1:100 in Triton X-100) from one healthy adult volunteer
T1 sequence (P22303 32-617 isoform P22303-2 limits assumed): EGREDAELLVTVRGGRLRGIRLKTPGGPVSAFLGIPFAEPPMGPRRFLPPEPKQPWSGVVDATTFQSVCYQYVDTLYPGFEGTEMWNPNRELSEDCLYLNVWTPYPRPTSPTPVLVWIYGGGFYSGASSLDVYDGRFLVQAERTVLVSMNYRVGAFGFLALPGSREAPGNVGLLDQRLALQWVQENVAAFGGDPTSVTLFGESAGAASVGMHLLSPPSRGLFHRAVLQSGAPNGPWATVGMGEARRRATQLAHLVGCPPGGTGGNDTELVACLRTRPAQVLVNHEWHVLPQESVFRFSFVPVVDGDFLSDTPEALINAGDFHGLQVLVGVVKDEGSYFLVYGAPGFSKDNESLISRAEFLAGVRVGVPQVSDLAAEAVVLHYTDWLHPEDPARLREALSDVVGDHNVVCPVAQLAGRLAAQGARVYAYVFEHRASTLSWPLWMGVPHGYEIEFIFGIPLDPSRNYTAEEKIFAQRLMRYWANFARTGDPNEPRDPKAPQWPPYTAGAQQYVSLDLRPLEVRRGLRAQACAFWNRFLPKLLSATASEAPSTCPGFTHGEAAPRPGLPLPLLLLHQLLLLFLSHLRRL
Protocol: RBC AChE and BuChE assays were performed on whole human blood and serum, respectively. In this study, all methods were conducted in accordance with guidelines and regulations to comply with the GLP and chemical wastes management established by the Cinvestav-IPN. The sampling protocol was approved by the Bioethics Commission of Nayarit State, Mexico (CEBN/011/2017). The subject gave written informed consent for their participation and blood samples were collected early in the morning. A human blood sample was collected from a healthy adult volunteer from Mexico City.
RBC AChE activity was evaluated according to the method reported by Ellman et al.[12] with some modifications. Briefly, fresh human whole blood samples were diluted (1:100) with Triton X-100 (0.03% in phosphate buffer 0.1 M, pH 7.4). The enzymatic assay media consisted of 500 µL diluted blood, 1 mL of phosphate buffer 0.1 M, pH 7.4, 0.05 mL of DTNB (10 mM), and 5 µL of ethopropazine (6 mM), which were mixed and incubated at 37 °C for 10 min. The reaction was started by the addition of 25 µL of substrate ATCh (28.3 mM) and absorbance was monitored at 436 nm during 3 min with a UV-Vis spectrophotometer (Thermo Scientific GENESYS 10S). AChE activity was corrected for hemoglobin (Hb) content and was reported in U/g Hb. The Hb content was determined at 540 nm using the Drabkin reagent. The molar extinction coefficient of the TNB hydrolysis product was ε = 10,600 M^−1 cm^−1.
To determine the inhibitory effect on human RBC AChE activity, the hemolyzed samples were preincubated with Tem and its metabolites for 15 min at 37 °C. The RBC AChE activity was evaluated as previously described by Bernal-Hernández et al.[13] in three independent experiments conducted in duplicate. Stock solutions of Tem metabolites were individually prepared in ethanol (Tem-SO, 4.14 mM; Tem-dox-SO, 4.44 mM, and Tem-dox-SO2, 4.20 mM). These solutions were used to prepare other diluted solutions in phosphate buffer (0.1 M, pH 7.4) to achieve the following concentrations: 0.1 to 10 μM Tem-SO, 0.05 to 5 μM Tem-dox-SO, and 0.02 to 2 μM Tem-dox-SO2. […] Log IC50, IC50, and R^2 values were estimated from the normalized AChE or BuChE activity with respect to the control assays (absence of the metabolite) and plotted as a function of the logarithm of metabolite concentration using Prism 8 software (GraphPad Software).

SMILES: COP(=S)(OC)Oc1ccc(Sc2ccc(OP(=S)(OC)OC)cc2)cc1 [Tem, O,O,O′,O′-tetramethyl O,O′-thiodi-p-phenylene bis(phosphorothionate)]
- absorbed into the bloodstream [1]: at least 40%
- effect on human RBC AChE activity ([2]; even at higher concentrations than 50 µM): did not exhibit any effect

SMILES: COP(=S)(OC)Oc1ccc([S+]([O-])c2ccc(OP(=S)(OC)OC)cc2)cc1 [Tem-SO]
- IC50 [2]: 553 nM

SMILES: COP(=O)(OC)Oc1ccc(S(=O)(=O)c2ccc(OP(=O)(OC)OC)cc2)cc1 [Tem-dox-SO2]
- IC50 [2]: 24.9 nM

SMILES: COP(=O)(OC)Oc1ccc([S+]([O-])c2ccc(OP(=O)(OC)OC)cc2)cc1 [Tem-dox-SO]
- IC50 [2]: 97.7 nM
